From patent publication US9101577B2, “Analgesic pharmaceutical composition for oral administration” (Warszawski Uniwersytet Medyczny, priority 2011, dated 2015)

What was measured:
Male Wistar rats [1] = experiment: Prolonged activity on repeated daily p.o. administration (7 or 10 days), paw withdrawal test (Randall and Selitto); format: in vivo, rat; settings: for pain threshold on separate administration, 7 days (dihydrocodeine study): dihydrocodeine 50 mg/kg; for pain threshold on separate administration, 7 days (morphine study): morphine 15 mg/kg
Protocol: (§1) Male Wistar rats (250-300 g) were housed in a room maintained at a temperature of 20±2° C. under 12 h-12 h light-dark cycles. The animals had free access to food and water. Experimental groups consisted of six rats.
(§2) Drugs • Morphine at a dose of 15 mg/kg, codeine at a dose of 175 mg/kg, tramadol at a dose of 125 mg/kg and oxycodone at a dose of 5 mg/kg were dissolved in distilled water; • Dihydrocodeine at a dose of 50 mg/kg was suspended in 1% solution of methylcellulose; • Magnesium lactate (in micronized form)—at a dose of 15 mg magnesium ions/kg (150 mg of magnesium lactate/kg) was suspended in 0.5% solution of methylcellulose; • Magnesium lactate in normal (non-micronized) form—at doses of 15 or 30 mg magnesium ions/kg (150 or 300 mg of magnesium lactate/kg, respectively) was suspended in 0.5% solution of methylcellulose; • Magnesium citrate (in micronized and normal form)—at a dose of 15 mg magnesium ions/kg (112 mg of magnesium citrate/kg) was dissolved in distilled water; • Magnesium hydroaspartate (in micronized and normal form)—at a dose of 15 mg magnesium ions/kg (216 mg of magnesium hydroaspartate/kg) was suspended in 0.5% solution of methylcellulose; • Magnesium chloride (in micronized and normal form)—at a dose of 15 mg magnesium ions/kg (59.5 mg of magnesium chloride/kg) was dissolved in distilled water; • Control animals received a 0.5% solution of methylcellulose, a 1% solution of methylcellulose and distilled water, respectively, according to the same time schedule.
Prolonged activity of the investigated drugs was measured the following day after initial administration, but before the next administration as well as after cessation of administration. Drugs were administered for seven consecutive days (administration of morphine, codeine, dihydrocodeine, oxycodone) or for ten days (administration of tramadol).
(§3) All drugs were administered per os (p.o.); literally—orally. However, in practice, drugs were administered intragastric via a gastric tube.
(§4) Changes in pain thresholds were determined using a mechanical stimuli—the modification of the classic paw withdrawal test described by Randall and Selitto [1957]. In order to produce mechanical stimulation, progressively increasing pressure was applied to the dorsal surface of the rat's paw using an analgesymeter. The instrument used increased the force on the paw at a rate of 32 grams per second. The nociceptive threshold was defined as force in grams, at which the rat attempted to withdraw its right hindpaw and values of pressure were recorded at this very moment. At least two observers controlled the response.
(§5) Nociceptive thresholds (average of two trials) measured for each animal before single administration of investigated drugs (measurement of acute activity) or in day 0 before the first administration (measurement of prolonged activity) constituted the baseline pain threshold—A. Next, measurements of the withdrawal threshold to mechanical stimuli were performed at 5, 15, 30, 60, 90, 120, 180, 240, 300 min after drug administration (measurements of acute activity) or every day before drug administration (measurements of prolonged activity)—B.
(§6) In all experimental sessions (i.e. every day, each drug investigated) values of thresholds obtained (B) were compared to baseline (A).
(§7) Changes in pain threshold were calculated as a percent of baseline value according to the following formula:
(§8) [formula] • C—% of analgesia; A—pressure (in g), baseline pain threshold; B—pressure (in g) in consecutive measurements.
(§9) Percents of analgesia values calculated as above for individual animals were subsequently used to calculate average values in particular experimental groups and for statistical analysis.
The results are expressed as mean values±standard […] of the mean (±S.E.M.). The statistical significance of differences between groups was evaluated by Student's t-test. p≦0.05 was accepted as statistically significant.

Male Wistar rats [2] = experiment: Acute activity after single p.o. administration, paw withdrawal test (Randall and Selitto), % of analgesia; format: in vivo, rat; settings: for analgesic activity / pain perception threshold on separate administration (dihydrocodeine study): dihydrocodeine 50 mg/kg; for analgesic activity / pain threshold when administered alone (morphine study): morphine 15 mg/kg
Protocol: as §1, §2
Magnesium salts and investigated opioids were administered concomitantly.
The micronized form of magnesium salts used in experiments contains particles of magnesium compounds of size D90<50 μm.
The normal magnesium salts form used in experiments contains particles of sizes commonly available in the market.
Acute activity of investigated drugs was measured in short time periods (from 5 to 300 min) after single administration.
as §3, §4, §5, §6, §7, §8, §9
The results are expressed as mean values±standard deviation of the mean (±S.E.M.).

[3] = separate administration p.o., magnesium lactate micronized 15 or normal 30 mg magnesium ions/kg
[4] = single separate administration p.o., magnesium salts 15 mg magnesium ions/kg
[5] = 15 mg magnesium ions/kg p.o. with oxycodone 5 mg/kg p.o., 7 consecutive days
[6] = single administration, 15 mg magnesium ions/kg p.o. with tramadol 125 mg/kg p.o.
[7] = 15 mg magnesium ions/kg p.o. with codeine 175 mg/kg p.o., 7 days
[8] = 15 mg magnesium ions/kg p.o. with dihydrocodeine 50 mg/kg p.o., 7 days
[9] = 15 mg magnesium ions/kg p.o. with morphine 15 mg/kg p.o., 7 days
[10] = 15 mg magnesium ions/kg p.o. with tramadol 125 mg/kg p.o., 10 consecutive days
[11] = single administration, 15 mg magnesium ions/kg p.o. with dihydrocodeine 50 mg/kg p.o.
[12] = single administration, 15 mg magnesium ions/kg p.o. with morphine 15 mg/kg p.o.
[13] = single administration, 15 mg magnesium ions/kg p.o. with oxycodone 5 mg/kg p.o.

COc1ccc2c3c1O[C@H]1[C@@H](O)CC[C@H]4[C@@H](C2)N(C)CC[C@@]341 [dihydrocodeine, reference compound] was tested. Which “pain threshold on separate administration, 7 days (dihydrocodeine study)” value (Male Wistar rats [1]; [3]) did it give?
The value was “insignificantly raised the nociceptive stimulus threshold on days 6 and 7”.

What about the “analgesic activity / pain perception threshold on separate administration (dihydrocodeine study)” value (Male Wistar rats [2]; [4]) of the same molecule?
Its value is “only insignificantly raised the pain perception threshold (90-120 min)”.

For CC(O)C(=O)[O-].CC(O)C(=O)[O-].[Mg+2] (centres unmarked) [magnesium lactate, Magnesium lactate], which “pain threshold one day after removal of the tested substances (oxycodone study)” value (Male Wistar rats [1]; 15 mg magnesium ions/kg p.o. with oxycodone 5 mg/kg p.o.) is on record?
Its value is “rapid return of the pain threshold to control values”.

And the “course of enhancement of oxycodone analgesia” value (Male Wistar rats [1]; [5])?
Its value is “reached its maximum on days 6 and 7”.

And the “day on which enhancement of oxycodone analgesia began” value (Male Wistar rats [1]; [5])?
The value was “third”.

What about the “effect on long-term analgesic activity of oxycodone” value (Male Wistar rats [1]; [5]) of the same molecule?
The value was “enhanced the long-term analgesic activity of the examined opioid”.

And the “enhancement of tramadol analgesia lasted until” value (Male Wistar rats [2]; [6])?
The value was 45 min.

What about the “time at which enhancement of tramadol analgesia appeared” value (Male Wistar rats [2]; [6]) of the same molecule?
The value was 5 min.

And the “time of maximum activity on tramadol analgesia” value (Male Wistar rats [2]; [6])?
The value was 15 min.

Which “course of enhancement of codeine analgesia” value (Male Wistar rats [1]; [7]) does the source give for CC(O)C(=O)[O-].CC(O)C(=O)[O-].[Mg+2] (centres unmarked) [micronized magnesium lactate, Magnesium lactate] here?
The value was “reached a maximum on days 6 and 7”.

And the “day on which enhancement of codeine analgesia began” value (Male Wistar rats [1]; [7])?
The value was “fourth”.

What about the “effect on analgesic activity of chronically administered codeine” value (Male Wistar rats [1]; [7]) of the same molecule?
The value was “also enhanced analgesic activity of chronically administered codeine”.

And the “activity after cessation of drug administration (codeine study)” value (Male Wistar rats [1]; 15 mg magnesium ions/kg p.o. with codeine 175 mg/kg p.o., days 8-10)?
Its value is “rapidly decreased”.

And the “course of enhancement of dihydrocodeine analgesia” value (Male Wistar rats [1]; [8])?
Its value is “reached a maximum on days 6 and 7”.

And the “day on which enhancement of dihydrocodeine analgesia began” value (Male Wistar rats [1]; [8])?
The value was “fourth”.

And the “effect on analgesic activity of chronically administered dihydrocodeine” value (Male Wistar rats [1]; [8])?
The value was “gradually enhanced the analgesic activity of chronically administered dihydrocodeine”.

What about the “pain threshold after cessation of drug administration (dihydrocodeine study)” value (Male Wistar rats [1]; 15 mg magnesium ions/kg p.o. with dihydrocodeine 50 mg/kg p.o., days 8-10) of the same molecule?
The value was “the pain threshold rapidly reduced to control values”.

And the “course of enhancement of morphine analgesia” value (Male Wistar rats [1]; [9])?
Its value is “grew gradually to 7 day”.

What about the “day on which enhancement of morphine analgesia began” value (Male Wistar rats [1]; [9]) of the same molecule?
Its value is 3 days.

And the “effect on analgesic activity of morphine, 7-day administration” value (Male Wistar rats [1]; [9])?
Its value is “also enhanced the analgesic activity of morphine”.

What about the “pain threshold after cessation of drug administration (morphine study)” value (Male Wistar rats [1]; 15 mg magnesium ions/kg p.o. with morphine 15 mg/kg p.o., days 8-10) of the same molecule?
Its value is “gradual return to baseline values”.

And the “course of enhancement of tramadol analgesia” value (Male Wistar rats [1]; [10])?
Its value is “gradually increased (to day 7), and then was maintained to day 10”.

What about the “day on which enhancement of tramadol analgesia began” value (Male Wistar rats [1]; [10]) of the same molecule?
Its value is “third”.

And the “effect on long-term analgesic activity of tramadol” value (Male Wistar rats [1]; [10])?
The value was “enhanced the long-term analgesic activity of the examined opioid”.

What about the “pain threshold after removal of the tested substances (tramadol study)” value (Male Wistar rats [1]; 15 mg magnesium ions/kg p.o. with tramadol 125 mg/kg p.o., days 11-12) of the same molecule?
The value was “the pain threshold returned to control values by day 11”.

And the “analgesic activity on separate administration, 7 days (codeine study)” value (Male Wistar rats [1]; separate administration p.o., codeine 175 mg/kg, magnesium lactate micronized 15 or normal 30 mg magnesium ions/kg)?
Its value is “did not exhibit analgesic activity”.

And the “pain threshold on separate administration, 7 days (dihydrocodeine study)” value (Male Wistar rats [1]; [3])?
Its value is “did not alter the pain threshold”.

And the “pain threshold on separate administration, 7 days (morphine study)” value (Male Wistar rats [1]; [3])?
The value was “did not alter the pain threshold”.

What about the “analgesic activity on separate administration, 7 days (oxycodone study)” value (Male Wistar rats [1]; separate administration p.o., oxycodone 5 mg/kg, magnesium lactate micronized 15 or normal 30 mg magnesium ions/kg) of the same molecule?
Its value is “did not exhibit analgesic activity”.

What about the “pain threshold on separate administration, 10 days (tramadol study)” value (Male Wistar rats [1]; separate administration p.o., tramadol 125 mg/kg, magnesium lactate micronized 15 or normal 30 mg magnesium ions/kg) of the same molecule?
The value was “did not alter the pain threshold”.

What about the “effect on analgesic activity of codeine” value (Male Wistar rats [2]; single administration, 15 mg magnesium ions/kg p.o. with codeine 175 mg/kg p.o.) of the same molecule?
The value was “significantly enhanced the analgesic activity of codeine”.

And the “effect on dihydrocodeine analgesia” value (Male Wistar rats [2]; [11])?
The value was “significantly enhanced dihydrocodeine analgesia”.

And the “time course of activity on dihydrocodeine analgesia” value (Male Wistar rats [2]; [11])?
Its value is “gradually increased and reached a maximum between min 45 and 90 of the measurements and then became weaker by min 210”.

And the “effect on morphine analgesia” value (Male Wistar rats [2]; [12])?
The value was “significantly enhanced morphine analgesia”.

What about the “enhancement of morphine analgesia lasted up to” value (Male Wistar rats [2]; [12]) of the same molecule?
The value was 240 min.

And the “time at which enhancement of morphine analgesia appeared” value (Male Wistar rats [2]; [12])?
Its value is 30 min.

What about the “effect on oxycodone analgesia” value (Male Wistar rats [2]; [13]) of the same molecule?
Its value is “significantly enhanced oxycodone analgesia”.

And the “time at which activity on oxycodone analgesia appeared” value (Male Wistar rats [2]; [13])?
The value was 5 min.

And the “time course of activity on oxycodone analgesia” value (Male Wistar rats [2]; [13])?
Its value is “maintained at a constant level up to min 30 of the study, then became weaker in min 45 and disappeared in min 60”.

What about the “effect on antinociceptive activity of tramadol” value (Male Wistar rats [2]; [6]) of the same molecule?
Its value is “increased antynociceptive activity of tramadol”.

What about the “analgesic activity on separate administration (codeine study)” value (Male Wistar rats [2]; single separate administration p.o., codeine 175 mg/kg, magnesium salts 15 mg magnesium ions/kg) of the same molecule?
Its value is “did not exhibit analgesic activity”.

And the “analgesic activity / pain perception threshold on separate administration (dihydrocodeine study)” value (Male Wistar rats [2]; [4])?
Its value is “did not exhibit analgesic activity”.

And the “analgesic activity / pain threshold when administered alone (morphine study)” value (Male Wistar rats [2]; [4])?
Its value is “Neither morphine nor magnesium lactate and chloride in micronized or normal form administered alone showed analgesic activity”.

What about the “analgesic activity on separate administration (oxycodone study)” value (Male Wistar rats [2]; single separate administration p.o., oxycodone 5 mg/kg, magnesium salts 15 mg magnesium ions/kg) of the same molecule?
Its value is “showed no analgesic activity”.

And the “analgesic activity on separate administration (tramadol study)” value (Male Wistar rats [2]; single separate administration p.o., tramadol 125 mg/kg, magnesium salts 15 mg magnesium ions/kg)?
The value was “did not exhibit analgesic activity”.

CN1CC[C@]23c4c5ccc(O)c4O[C@H]2[C@@H](O)C=C[C@H]3[C@H]1C5 [morphine, reference compound] was tested. Which “pain threshold on separate administration, 7 days (morphine study)” value (Male Wistar rats [1]; [3]) did it give?
Its value is “slightly increased the threshold for mechanical nociceptive stimuli”.

What about the “analgesic activity / pain threshold when administered alone (morphine study)” value (Male Wistar rats [2]; [4]) of the same molecule?
The value was “Neither morphine nor magnesium lactate and chloride in micronized or normal form administered alone showed analgesic activity”.
